Laboratory results from patent US7604982B2, “High-throughput screening method for intergrin antagonist and new peptide screened therefrom” (Proteogen Inc., priority 2003, dated 2009).
Blank lines part the entries; values can stand above or below the molecule they belong to. Residues, ends and D or L forms follow the SMILES beside them.

Tests used:
[1] = target: T1, integrin αvβ3-vitronectin interaction (Homo sapiens, UniProt P05106+P06756); assay: Competitive inhibition of integrin αvβ3-vitronectin interaction on integrin microarray (ProteoChip); assay type: binding; details: for inhibition of integrin αvβ3-vitronectin interaction (relative fluorescence intensity): vitronectin 100 ng/ml labeled with Cy-3, colour scale white highest, blue lowest; for IC50: half-maximal inhibition concentration relative to control without peptides, ND means no activity was detected
T1 construct: purchased Chemicon International, Inc. (CA, USA)
Text: ProteoChip™ (Proteogen, Inc., Seoul, South Korea) was used as a protein chip and integrins were spotted on the ProteoChip™ (Proteogen, Inc., Seoul, South Korea) with the microarrayer (CM-1000; Proteogen, Inc., Seoul, South Korea) to fabricate integrin receptor microarray (See Lee, Y. S. et al.: ProteoChip: a highly sensitive protein microarray proposed by a novel method of protein immobilization for application of protein-protein interaction studies, Proteomics 2003; 3: 2289-2304). Integrin α11bβ3 was purified to homogeneity by GRGDSPK-Sepharose column chromatography from the platelet (See Kang I. C. and Kim D. S., Analysis of potent glycoprotein IIb-IIIa antagonist from natural sources. J Biochem Mol Biol 1998; 31: 515-518), and Integrin αvβ3 was commercially obtained from Chemicon International, Inc. (CA, USA).
Integrins (40 μg/mL) diluted with a phosphate-buffered saline (PBS) solution containing 10 mM β-octylthioglucopyranoside, 1.0 mM CaCl2, 11.0 mM MgCl2, and 30% glycerol were spotted and incubated at 37° C. for 3 hours, and then the remaining integrins after binding were washed with 0.5% PBST (PBS containing 0.5% Tween-20). The prepared integrin microarray was stored at 4° C. until before use. This integrin microarray (integrin-binding protein chip) was used for high-throughput screening of integrin receptor antagonist (See FIG. 1).
Mixtures of ligand protein (vitronectin 100 ng/ml) labeled with fluorescence (Cy-3) and known integrin antagonists such as disintegrins (echistatin 250 μg/ml, flavoridin 250 μg/ml, kistrin 250 μg/ml, and salmosin 2.6 ng/ml), a monoclonal antibody (mAb) against integrin 11.0 mg/ml, and various concentrations of synthetic RGD peptides (echistatin, flavoridin, kistrin: Sigma-Aldrich, USA; Salmosin: isolated and purified from recombinant E. Coli; monoclonal antibody against integrin: Chemicon International, Inc., USA; synthetic ROD peptides: synthesized in the Korea Research Institute of Bioscience and Biotechnology, South Korea) were dropped on the integrin receptor of the integrin αvβ3-binding protein chip prepared in Example 1 by using micropipette or microarrayer (CM-1000; Proteogen, Inc., Seoul, South Korea) and then were reacted in a oven of 37° C. and over 75% humidity for 4-12 hours. After reaction, those were washed for about 10 minutes with 0.5% PBST containing 3% BSA. Competitive inhibitory abilities of antagonists were measured by analyzing the degree of ligand binding as relative fluorescence intensity with a fluorescence scanner.
Antagonists used in FIG. 4 are already known as antagonistic material of integrin αvβ3-vitronectin. This is also a result analyzing whether mixing antagonists and vitronectin labeled with fluorescence inhibit or not the interaction between integrin αvβ3 and vitronectin. Control are the group having only vitronectin labeled with fluorescence without antagonists and the other groups are the results performed with antagonists and peptides including the amino acid sequence of RGE. The fluorescence intensity in FIG. 4 is expressed as rainbow colors like the explanation of FIG. 3. […] However, in case of groups having antagonists, antagonists inhibited the interaction between integrin αvβ3 and vitronectin, that is, integrin αvβ3 didn't bind to vitronectin, which made the color of fluorescence blue, the lowest color.
Mixtures of ligand protein (Fibrinogen 100 ng/ml and vitronectin 100 ng/ml) labeled with fluorescence (Cy-3) and 114 peptide pools from peptide library were dropped on the integrin receptor of integrin αvβ3-binding protein chip prepared in Example 1 by using micropipette or microarrayer (CM-1000; Proteogen, Inc., Seoul, South Korea) and then were reacted in oven of 37° C. and over 75% humidity for 4-12 hours. After reaction, those were washed for about 10 minutes with 0.5% PBST containing 3% BSA. […]

[2] = system: angiogenesis in chick chorioallantoic membrane; assay: Inhibition assay of angiogenesis in a chick chorioallantoic membrane; assay type: in vivo; details: in the presence of bFGF, FIG. 10
Experimental: FIG. 10 is the result of analyzing effects of antagonistic peptides of integrin αvβ3 on angiogenesis in a chick chorioallantoic membrane. In vivo angiogenesis inhibition test was performed as one of biological characterization researches of the antagonistic peptides. A, positive control, is the result of the group treated with only bFGF without peptide; B, negative control, is the result of the group having only cells without bFGF; C is the result of the group treated with GRGDSP peptide in the presence of bFGF; D is the result of the group treated with HGDVHK peptide in the presence of bFGF; E is the result of the group treated with HSDVHK peptide in the presence of bFGF; and F is the result of the group treated with HHDVHK peptide in the presence of bFGF.
Fertilized eggs was purchased from Pulmuone Corp. (South Korea), Thermanox coverslips for sample loading was purchased from Nunc Company (USA), and 10% Intralipose (fat emulsion) for observation and syringes were purchased from Green Cross Company (South Korea).
On day 1 (0-day embryo): Fertilized egg was incubated in a incubator of 37-38° C. and over 90% humidity. The temperature and humidity were often checked to make sure the above conditions.
On day 3 (2-day embryo): The peaked end of fertilized egg was cracked with a knife. […] The pore was sealed with transparent tape to block infection and dryness of the fertilized egg. The egg was incubated again with the direction of pore toward the bottom.
On day 4 (3-day embryo): The window which diameter is 2-3 cm was made in the direction of air sac of fertilized egg (in the opposite direction of the above syringe pore) and the eggs confirmed as fertilized egg were sealed with broad transparent tape and incubated again. For reference, round window was made as follows. A round shape of scratch was made on the eggshell with a sharp knife and eggshell then was taken away with a pincette.
On day 5 (4.5-day embryo): CAM is usually created at this time and the diameter is about 2-5 mm. […]

[3] = system: human umverical vein endothelial cell (HUVEC); assay: HUVEC migration assay (Boyden chamber, bFGF chemoattractant); assay type: cell-based; details: bFGF-induced, 4 hours at 37° C., FIG. 9
Experimental: HUVE cell was cultured in M199 medium containing 10% fetal calf serum and 3 ng/ml bFGF. This cell was cultured in the control medium (M199 containing 0.1% BSA) for 16 hours to be used in migration assay, and then 3×10^4 cells were added to upper chamber of porous membrane coated with gelatin (40 μM) and inserted in Boyden chamber. Samples were treated at the same time in a concentration-dependent manner. Chemoattractant, bFGF, was added in the bottom chamber to induce HUVE cell to migrate into lower chamber. The chamber was incubated for 4 hours at 37° C. and then the membrane was removed. After fixation, cell was stained with crystal violet and cells migrating across the membrane were counted with a microscope.

human malignant melanoma = details: cited from earlier work
[4] = system: Lewis lung carcinomas cells; assay: Growth inhibition assay of subcutaneous solid tumor; assay type: in vivo, C57BL/6 mice; details: 100 mg/kg mouse, subcutaneous injection once daily, FIGS. 11-13
Experimental: Lewis lung carcinomas cells (1×10^6) were injected subcutaneously into dorsal midline of C57BL/6 mice. When tumors were 100-200 mm^3 in volume, the mice were randomized into three groups. Two groups received HGDVHK or HSDVHK (100 mg/kg mouse), respectively, in PBS via subcutaneous injection at a site distant from the tumor once daily. […] The sizes of the tumors in all groups were measured at the same time everyday. The experiments were terminated when the control mice began to die.

[5] = system: blood endothelial alpha(5) and alpha(v)-integrin; details: endothelial cell migration; cited from earlier work

inhibition of integrin αvβ3-vitronectin interaction (relative fluorescence intensity) [1]: didn't reveal any inhibitory activity
Molecule: HHDVHK [HHDVHK-NH2]
inhibitory effect on CAM angiogenesis [2]: had little effect | inhibition of HUVEC migration [3]: had little effect

IC50 [1]: 0.0647 nM
Molecule: CC(C)[C@H](NC(=O)[C@H](CC(=O)O)NC(=O)CNC(=O)[C@@H](N)Cc1c[nH]cn1)C(=O)N[C@@H](Cc1c[nH]cn1)C(=O)N[C@@H](CCCCN)C(N)=O [HGDVHK-NH2] (H-HGDVHK-NH2; N-terminus assumed)
inhibition of integrin αvβ3-vitronectin interaction (relative fluorescence intensity) [1]: stronger inhibitory activity in integrin αvβ3-specific inhibitory test than GRGDSP | inhibitory effect on CAM angiogenesis [2]: showed different inhibitory effects | inhibition of HUVEC migration [3]: significantly inhibited

IC50 [1]: 0.00353 nM
Molecule: CC(C)C[C@H](NC(=O)CNC(=O)[C@@H](N)Cc1c[nH]cn1)C(=O)N[C@H](C(=O)N[C@@H](Cc1c[nH]cn1)C(=O)N[C@@H](CCCCN)C(N)=O)C(C)C [HGLVHK-NH2] (H-HGLVHK-NH2; N-terminus assumed)

IC50 [1]: 0.0436 nM
Molecule: CC(C)C[C@H](NC(=O)[C@H](CC(=O)O)NC(=O)CNC(=O)[C@@H](N)Cc1c[nH]cn1)C(=O)N[C@@H](Cc1c[nH]cn1)C(=O)N[C@@H](CCCCN)C(N)=O [HGDLHK-NH2] (H-HGDLHK-NH2; N-terminus assumed)

IC50 [1]: 0.407 nM
Molecule: CC(C)C[C@H](NC(=O)[C@H](Cc1c[nH]cn1)NC(=O)[C@@H](N)Cc1c[nH]cn1)C(=O)N[C@H](C(=O)N[C@@H](Cc1c[nH]cn1)C(=O)N[C@@H](CCCCN)C(N)=O)C(C)C [HHLVHK-NH2] (H-HHLVHK-NH2; N-terminus assumed)

IC50 [1]: 0.064 nM
Molecule: CC(C)C[C@H](NC(=O)[C@H](CO)NC(=O)[C@@H](N)Cc1c[nH]cn1)C(=O)N[C@H](C(=O)N[C@@H](Cc1c[nH]cn1)C(=O)N[C@@H](CCCCN)C(N)=O)C(C)C [HSLVHK-NH2] (H-HSLVHK-NH2; N-terminus assumed)

Molecule: CC(C)[C@H]1C(=O)N[C@@H](CCCN=C(N)N)C(=O)NCC(=O)N[C@@H](CC(=O)O)C(=O)N[C@H](Cc2ccccc2)C(=O)N1C [EMD121974]
angiogenesis inhibition and cancer growth suppression in animal test (human malignant melanoma): activity inhibiting angiogenesis and thus suppressing cancer growth

IC50 [1]: 0.00434 nM
Molecule: CC(C)C[C@H](NC(=O)[C@H](CC(C)C)NC(=O)[C@H](Cc1c[nH]cn1)NC(=O)[C@@H](N)Cc1c[nH]cn1)C(=O)N[C@@H](Cc1c[nH]cn1)C(=O)N[C@@H](CCCCN)C(N)=O [HHLLHK-NH2] (H-HHLLHK-NH2; N-terminus assumed)

IC50 [1]: 0.00241 nM
Molecule: CC(C)[C@H](NC(=O)[C@H](CC(=O)O)NC(=O)[C@H](CO)NC(=O)[C@@H](N)Cc1c[nH]cn1)C(=O)N[C@@H](Cc1c[nH]cn1)C(=O)N[C@@H](CCCCN)C(N)=O [HSDVHK-NH2] (H-HSDVHK-NH2; N-terminus assumed)
growth of solid tumor [4]: largely suppressed | inhibition of integrin αvβ3-vitronectin interaction (relative fluorescence intensity) [1]: stronger inhibitory activity in integrin αvβ3-specific inhibitory test than GRGDSP | inhibitory effect on CAM angiogenesis [2]: showed different inhibitory effects | inhibition of HUVEC migration [3]: significantly inhibited

B1: recombinant human endostatin: recombinant human endostatin interacting with endothelial alpha(5) and alpha(v)-integrin (protein, UniProt P39060 1572-1754, looked up)
Endostatin: HSHRDFQPVLHLVALNSPLSGGMRGIRGADFQCFQQARAVGLAGTFRAFLSSRLQDLYSIVRRADRAAVPIVNLKDELLFPSWEALFSGSEGPLKPGARIFSFDGKDVLRHPTWPQKSVWHGSDPNGRRLTESYCETWRTEAPSATGQASSLLGGRLLGQSAASCHHAYIVLCIENSFMTASK
modifications: Endostatin
inhibition of integrin-dependent endothelial function [5]: inhibit integrin-dependent endothelial function such as endothelial cell migration
